Values of other authors as cited in patent US20190359769A1, “PHARMACEUTICAL AGENT FOR IRON CHELATING” (Johannes Gutenberg-Universität Mainz, priority 2017, published 2019).

Experiments:
[1] = Fe^3+ complex
[2] = in vivo
[3] = studies on rats and humans
[4] = one study

CC(=O)N(O)CCCCCNC(=O)CCC(=O)N(O)CCCCCNC(=O)CCC(=O)N(O)CCCCCN [DFO, Deferoxamine]
logarithmic stability constant of iron complexes [1]: 30
plasma half-life [2]: about 5 minutes

O=C(O)c1ccc(-n2nc(-c3ccccc3O)nc2-c2ccccc2O)cc1 [DFX, Deferasirox]
physiological half-life [3]: 8-16 h

Cc1c(O)c(=O)ccn1C [DFP, Deferiprone]
proportion of the DFP dose administered found in the urine in the form of inactive 3-O-glucoronide conjugates [4]: 85%
